Results: patent publication US20260265321A1, “PEPTIDE AND POLYPEPTIDE INHIBITING THE NF-KB SIGNALING PATHWAY” (Centre National de la Recherche Scientifique, priority 2023, published 2026)
Residues, ends and D or L forms follow the SMILES beside them.

Columns and labels:
[1] = molecular target: T1, endogenous IKK immunoprecipitated from HEK293T cells (Homo sapiens, UniProt O14920+O15111); assay: In vitro kinase assay with endogenous IKK, inhibition by synthetic peptides; assay type: biochemical; settings: 500 μM synthetic peptide, 1 μM 6×His-IκBα wt, 30° C.
T1 construct: endogenous canonical IKK, which was immunoprecipitated from HEK293T cells using an anti-NEMO antibody; endogenous in cells; host or cells: HEK293T cells induced with TNFα; anti-NEMO immunoprecipitate on protein G beads
Description: Using endogenous IKK complex. IKK was immunoprecipitated from HEK293T cells. 3 petri dishes (100×15 mm, corning) of cells at 70% confluence were induced with 10 nM recombinant TNFα (abcam, #ab9642) for 10 minutes, and then washed twice by cold PBS. The whole-cell extracts were prepared by addition of 1 ml of lysis buffer (50 mM HEPES pH 8, 200 mM NaCl, 0.5% NP-40, 1 mM EDTA, 10 mM KCl, 1 mM DTT, Roche cOmplete™ protease inhibitors cocktail, 50 mM NaF, 50 mM b-glycerophosphate and 1 mM Na orthovanadate) and homogenized by passing through a 21-gauge needle for 5-10 times. After 30 minutes of incubation on ice, the extracts were centrifuged at 11,000 g and at 4° C. The cleared supernatants were incubated with 15 μl of anti-NEMO antibody (Santa Cruz biotech, #F-10) overnight at 4° C. and, then, immunoprecipitated with 150 μl of protein G Sepharose beads (GE, #17-0618-01) for 2 hours at 4° C. […]
Kinase activity reactions were performed in kinase buffer (defined above) using 50 μl immunoprecipitant and 1 μM of purified full-length 6×His-IκBα wt or mutant constructs. […] The reaction products were analysed on a 10% SDS-PAGE gel and Western blotting using anti-phospho-IκBα (Cell Signaling Technology, #9246), anti-IKKβ (cell signaling, #2684s) and anti-6×His (sigma, #SAB4301134) antibodies. The relative amounts of phosphorylated IκBα were quantified using ImageJ.

[2] = molecular target: T2, IKKα(10-667) EE homodimer (Homo sapiens, UniProt O15111, S176E/S180E); assay: Isothermal titration calorimetry (ITC) of peptide binding to IKKα homodimer; settings: for TΔS / ΔG / ΔH / Kd: IKKα
T2 construct: an equivalent construct of the IKKα homodimer (i.e. IKKα(10-667) S176E/S180E, named IKKα(10-667) EE hereafter); 6×His (followed by TEV site) (N, cleaved yes); made in house; host or cells: Sf21 insect cells (baculovirus)
T2 sequence (O15111 10-667 S176E/S180E): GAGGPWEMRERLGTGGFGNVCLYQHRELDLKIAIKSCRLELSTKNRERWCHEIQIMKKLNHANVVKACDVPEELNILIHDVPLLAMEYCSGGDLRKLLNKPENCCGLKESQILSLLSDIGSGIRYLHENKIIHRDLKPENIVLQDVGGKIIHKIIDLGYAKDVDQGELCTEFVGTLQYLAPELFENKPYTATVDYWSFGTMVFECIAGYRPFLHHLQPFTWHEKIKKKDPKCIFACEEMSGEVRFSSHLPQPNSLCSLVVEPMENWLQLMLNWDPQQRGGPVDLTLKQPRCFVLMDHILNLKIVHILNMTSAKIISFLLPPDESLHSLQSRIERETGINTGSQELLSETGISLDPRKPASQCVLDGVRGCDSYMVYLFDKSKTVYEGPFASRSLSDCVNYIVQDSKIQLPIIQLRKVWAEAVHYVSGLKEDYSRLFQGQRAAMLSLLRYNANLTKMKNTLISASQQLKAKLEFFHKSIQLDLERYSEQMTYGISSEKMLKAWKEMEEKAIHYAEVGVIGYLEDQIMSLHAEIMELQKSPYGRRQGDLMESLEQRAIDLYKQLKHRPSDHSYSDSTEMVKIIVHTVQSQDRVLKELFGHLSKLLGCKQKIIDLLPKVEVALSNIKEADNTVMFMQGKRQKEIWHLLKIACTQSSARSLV
Description: All experiments were performed in ITC buffer (20 mM HEPES pH 8.0, 150 mM NaCl, 1 mM TCEP) unless otherwise stated. Purified IKKα(10-667) EE and IKKβ(1-669) EE protein samples were dialyzed overnight against ITC buffer at 4° C. Just before the ITC experiments, IKKα or IKKβ samples were concentrated, incubated at room temperature for 30 minutes and centrifuged at 11000 g to remove eventual precipitate. The final concentrations of IKKα and IKKβ in the sample cell varied between 22 and 50 μM depending on the measurement. HPLC purified synthetic peptides (IκBα pep) comprising residues 297-317 of IκBα were further desalted using a Nap5 (GE Healthcare, #17-0853-01) column equilibrated in milliQ water, lyophilized and then resuspended in ITC buffer. The concentration of peptides in the syringe varied between 220 and 975 μM depending on the measurement.
All ITC measurements were performed using a PEAQ-ITC MALVERN instrument. The titration parameters were set as following: temperature 25° C., reference power 10 μcal/s, feedback=high, stirring speed 750 RPM, initial delay 60 s, first injection 0.4 μl in 0.8 s and the remaining 19 injections were 2 μL in 4 s with 120 s of spacing. The data were fitted to a 1:1 binding model. All data were processed using NITPIC software and global fitting of two datasets was carried out using SEDPHAD.
To evaluate binding affinities, isothermal titration calorimetry (ITC) experiments were performed using a synthetic peptide that comprises the YDDφXφ motif plus the N-terminal acidic patch (residues 297-317, named IκBα pep hereafter) and purified IKKβ(1-669) EE homodimer or an equivalent construct of the IKKα homodimer (i.e. IKKα(10-667) S176E/S180E, named IKKα(10-667) EE hereafter). […] ITC analyses on the IKKα/β heterodimer were prevented by strong aggregation propensity at the concentrations required for these experiments.
All ITC experiments were performed at 25° C. The data were fitted to a 1:1 binding model. N refers to the binding stoichiometry of IKKα/β: pep, meaning that approximately half of total IKKα/β concentration binds pep ligand in agreement with the dimer form of IKKα/β being binding competent. The values for the IKKα interaction with IRF7 pep should be regarded as estimates due to low affinity and weakly exothermic binding, and therefore high experimental error and fitting uncertainty. All data were processed using NITPIC software and global fitting of two datasets was carried out using SEDPHAD.

T1 sequence (O14920 whole entry): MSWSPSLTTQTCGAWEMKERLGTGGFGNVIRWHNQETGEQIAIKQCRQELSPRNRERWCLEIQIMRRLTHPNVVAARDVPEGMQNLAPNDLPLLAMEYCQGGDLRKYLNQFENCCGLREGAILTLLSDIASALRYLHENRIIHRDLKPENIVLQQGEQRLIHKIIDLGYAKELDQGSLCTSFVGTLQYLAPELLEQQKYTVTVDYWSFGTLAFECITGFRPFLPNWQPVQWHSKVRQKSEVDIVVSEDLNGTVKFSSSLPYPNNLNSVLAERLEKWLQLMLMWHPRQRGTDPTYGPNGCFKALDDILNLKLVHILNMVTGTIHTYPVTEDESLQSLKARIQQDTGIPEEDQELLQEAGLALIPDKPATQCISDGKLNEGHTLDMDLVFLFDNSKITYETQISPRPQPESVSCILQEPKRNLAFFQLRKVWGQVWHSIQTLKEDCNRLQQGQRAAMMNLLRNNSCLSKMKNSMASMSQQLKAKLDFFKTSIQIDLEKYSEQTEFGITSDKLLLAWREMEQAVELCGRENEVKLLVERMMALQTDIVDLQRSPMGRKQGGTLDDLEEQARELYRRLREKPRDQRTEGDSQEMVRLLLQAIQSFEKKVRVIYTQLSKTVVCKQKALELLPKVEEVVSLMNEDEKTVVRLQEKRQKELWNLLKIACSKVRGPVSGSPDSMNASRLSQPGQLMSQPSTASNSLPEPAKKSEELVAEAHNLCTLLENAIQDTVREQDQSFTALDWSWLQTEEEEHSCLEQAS
T1 sequence (O15111 whole entry): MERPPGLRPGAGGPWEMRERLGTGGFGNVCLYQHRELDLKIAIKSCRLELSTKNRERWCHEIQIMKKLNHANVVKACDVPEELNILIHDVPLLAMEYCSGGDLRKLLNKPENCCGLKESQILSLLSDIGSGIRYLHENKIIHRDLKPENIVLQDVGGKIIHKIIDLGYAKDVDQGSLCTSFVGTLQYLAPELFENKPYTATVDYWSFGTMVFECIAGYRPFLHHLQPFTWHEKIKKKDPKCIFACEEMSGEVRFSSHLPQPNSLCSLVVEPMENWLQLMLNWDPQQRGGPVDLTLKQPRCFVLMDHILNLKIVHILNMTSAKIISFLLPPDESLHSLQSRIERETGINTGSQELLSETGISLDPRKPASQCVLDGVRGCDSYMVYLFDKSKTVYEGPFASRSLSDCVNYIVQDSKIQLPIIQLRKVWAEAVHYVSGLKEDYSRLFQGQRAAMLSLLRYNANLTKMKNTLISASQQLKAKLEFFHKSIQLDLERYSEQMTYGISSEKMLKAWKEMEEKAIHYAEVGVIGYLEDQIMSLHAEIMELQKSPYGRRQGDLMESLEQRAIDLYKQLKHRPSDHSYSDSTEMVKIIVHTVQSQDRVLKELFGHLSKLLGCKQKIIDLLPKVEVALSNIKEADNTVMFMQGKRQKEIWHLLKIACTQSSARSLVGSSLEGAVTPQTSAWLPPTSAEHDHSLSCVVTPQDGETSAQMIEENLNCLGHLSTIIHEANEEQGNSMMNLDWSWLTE
T1 sequence (Q9Y6K9 whole entry partner): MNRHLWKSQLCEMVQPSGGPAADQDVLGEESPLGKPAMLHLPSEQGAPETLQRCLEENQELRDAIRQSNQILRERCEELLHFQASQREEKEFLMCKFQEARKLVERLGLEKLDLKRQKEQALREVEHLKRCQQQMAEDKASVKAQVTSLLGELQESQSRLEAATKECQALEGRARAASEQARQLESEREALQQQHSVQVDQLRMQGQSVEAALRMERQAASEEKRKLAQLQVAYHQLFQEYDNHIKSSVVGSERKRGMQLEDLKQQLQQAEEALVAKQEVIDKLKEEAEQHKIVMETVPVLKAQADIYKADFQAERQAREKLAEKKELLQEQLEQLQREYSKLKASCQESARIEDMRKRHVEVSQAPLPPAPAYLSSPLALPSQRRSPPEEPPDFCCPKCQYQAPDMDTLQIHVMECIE

Structure (SMILES)	inhibition of IκBα phosphorylation (Ser32/Ser36) [1]	enhancement of affinity to IKKα relative to IκBα pep wt [2] [fold]	N (binding stoichiometry of IKKα: pep) ([2]; 25° C., 1:1 binding model)	TΔS ([2]; 25° C.) [kcal/mol]	ΔG ([2]; 25° C.) [kcal/mol]	ΔH ([2]; 25° C.) [kcal/mol]	Kd [2] [µM]	Kd ([2]; 25° C., 1:1 binding model) [µM]
CC(C)C[C@H](NC(=O)[C@@H](NC(=O)[C@H](CC(C)C)NC(=O)[C@H](CCCNC(=N)N)NC(=O)[C@H](CCC(N)=O)NC(=O)CNC(=O)CNC(=O)[C@H](Cc1ccccc1)NC(=O)[C@@H](NC(=O)[C@H](CC(C)C)NC(=O)[C@H](CC(=O)O)NC(=O)[C@H](CC(=O)O)NC(=O)[C@H](Cc1ccc(O)cc1)NC(=O)[C@@H]1CCCN1C(=O)[C@H](CC(C)C)NC(=O)[C@H](CCC(=O)O)NC(=O)[C@H](CC(=O)O)NC(=O)[C@H](CCC(=O)O)NC(=O)[C@@H](NC(=O)[C@H](Cc1ccccc1)NC(=O)[C@@H](N)CCC(=O)O)[C@@H](C)O)C(C)C)[C@@H](C)O)C(=O)O [IkBα pep C308L] (H-EFTEDELPYDDLVFGGQRLTL-OH; N-terminus and C-terminus assumed)	inhibit IκBα phosphorylation more efficiently than the YD/SS negative control peptide	25	0.65	-4.71	-8.80	-13.5	0.35	
CC(C)C[C@H](NC(=O)[C@@H](NC(=O)[C@H](CC(C)C)NC(=O)[C@H](CCCNC(=N)N)NC(=O)[C@H](CCC(N)=O)NC(=O)CNC(=O)CNC(=O)[C@H](Cc1ccccc1)NC(=O)[C@@H](NC(=O)[C@H](CS)NC(=O)[C@H](CC(=O)O)NC(=O)[C@H](CC(=O)O)NC(=O)[C@H](Cc1ccc(O)cc1)NC(=O)[C@@H]1CCCN1C(=O)[C@H](CC(C)C)NC(=O)[C@H](CCC(=O)O)NC(=O)[C@H](CC(=O)O)NC(=O)[C@H](CCC(=O)O)NC(=O)[C@@H](NC(=O)[C@H](Cc1ccccc1)NC(=O)[C@@H](N)CCC(=O)O)[C@@H](C)O)C(C)C)[C@@H](C)O)C(=O)O [IκBα pep] (H-EFTEDELPYDDCVFGGQRLTL-OH; N-terminus and C-terminus assumed)	inhibit IκBα phosphorylation more efficiently than the YD/SS negative control peptide		0.62	-8.35	-6.88	-15.2		9
